What was measured:
stimulated PBMC = assay: IC50 on stimulated PBMC (actively dividing cells); details: for Therapeutic Index = IC50 resting PBMC/IC50 cancer cell: PBMC Stim, healthy lymphocyte, Table IV; for Therapeutic Index = IC50 stimulated PBMC/IC50 cancer cell, AVERAGE: average across the 7 cancer cell lines, Table VII
Description: The IC^50 in PBMC were tested in 2 different activation status:
stimulated—actively dividing cells
IC50 of the compounds was determined on fresh cells isolated from human blood (PBMC). The compounds toxicity was determined as follow: Therapeutic Index=Safety/Potency=IC50 stimulated PBMC_/IC50 cancer cell

[1] = system: LNCaP prostate cancer xenograft; assay: Human prostate cancer xenograft in nude mice, oral treatment; assay type: in vivo
Description: 3×10^6 LNCaP cells suspended in matrigel were subcutaneously injected (on the right flank) into 6 week old male athymic nude mice. Tumors were measured as described above. Treatment with CB-03-10 and controls compounds was initiated after the tumor had reached 50 mm3. […] Oral dosing was daily (100 mg/Kg in 200 μL/mouse) for 28 consecutive days. Results were plotted as average change in tumor volume relative to the start of treatment.

Row | SMILES | Therapeutic Index = IC50 resting PBMC/IC50 cancer cell (stimulated PBMC) | Therapeutic Index = IC50 stimulated PBMC/IC50 cancer cell, AVERAGE (stimulated PBMC) | prostate tumor size increase after treatment was stopped ([1]; oral 100 mg/Kg daily 28 days, after stop) [fold] | statistical significance of tumor growth versus vehicle ([1]; oral gavage, FIG. 16)
1 | CCCC(=O)OC1(C(=O)CO)CCC2C3CCC4=CC(=O)CC[C@]4(C)C3=CC[C@@]21C (single isomer, unassigned) [CB-03-04] | 1 | 4 | – | –
2 | CCC(=O)O[C@]1(C(=O)CO)CC[C@H]2[C@@H]3CCC4=CC(=O)CC[C@]4(C)[C@H]3CC[C@@]21C [CB-03-01] | 1 | 0 | – | –
3 | CCCC(=O)OCC(=O)[C@@]1(OC(=O)CCC)CCC2C3CCC4=CC(=O)CC[C@]4(C)C3CC[C@@]21C (some centres unmarked) [CB-03-03] | 1 | 4 | – | –
4 | CNC(=O)c1ccc(N2C(=S)N(c3ccc(C#N)c(C(F)(F)F)c3)C(=O)C2(C)C)cc1F [Enzalutamide, reference compound] | – | – | 8 | statistically significant only on days 14 and 25

From patent US11712443B2, “17α-monoesters and 17α,21-diesters of cortexolone for use in the treatment of tumors” (COSMO TECHNOLOGIES LTD., priority 2014, dated 2023)
